Laboratory results reported in patent publication US5750754A, “Heterocyclic compounds” (Zeneca Limited, priority 1993, dated 1998).
Counter-ions that a name gives are not always drawn.

Columns and labels:
[1] = biological target: T1, purified human platelet fibrinogen receptor (GPIIb/IIIa) (Homo sapiens, UniProt P05106+P08514); assay: Test (b): GPIIb/IIIa ELISA, inhibition of biotinylated fibrinogen binding; conditions: purified human platelet GPIIb/IIIa, ELISA; for IC50: read-out: Test (b): pIC50 (-log(IC50)), 50% inhibition of biotinylated fibrinogen binding to GPIIb/IIIa (converted)
T1 construct: is isolated from human platelet lysates; from tissue
T1 sequence (P08514 32-887 limits assumed): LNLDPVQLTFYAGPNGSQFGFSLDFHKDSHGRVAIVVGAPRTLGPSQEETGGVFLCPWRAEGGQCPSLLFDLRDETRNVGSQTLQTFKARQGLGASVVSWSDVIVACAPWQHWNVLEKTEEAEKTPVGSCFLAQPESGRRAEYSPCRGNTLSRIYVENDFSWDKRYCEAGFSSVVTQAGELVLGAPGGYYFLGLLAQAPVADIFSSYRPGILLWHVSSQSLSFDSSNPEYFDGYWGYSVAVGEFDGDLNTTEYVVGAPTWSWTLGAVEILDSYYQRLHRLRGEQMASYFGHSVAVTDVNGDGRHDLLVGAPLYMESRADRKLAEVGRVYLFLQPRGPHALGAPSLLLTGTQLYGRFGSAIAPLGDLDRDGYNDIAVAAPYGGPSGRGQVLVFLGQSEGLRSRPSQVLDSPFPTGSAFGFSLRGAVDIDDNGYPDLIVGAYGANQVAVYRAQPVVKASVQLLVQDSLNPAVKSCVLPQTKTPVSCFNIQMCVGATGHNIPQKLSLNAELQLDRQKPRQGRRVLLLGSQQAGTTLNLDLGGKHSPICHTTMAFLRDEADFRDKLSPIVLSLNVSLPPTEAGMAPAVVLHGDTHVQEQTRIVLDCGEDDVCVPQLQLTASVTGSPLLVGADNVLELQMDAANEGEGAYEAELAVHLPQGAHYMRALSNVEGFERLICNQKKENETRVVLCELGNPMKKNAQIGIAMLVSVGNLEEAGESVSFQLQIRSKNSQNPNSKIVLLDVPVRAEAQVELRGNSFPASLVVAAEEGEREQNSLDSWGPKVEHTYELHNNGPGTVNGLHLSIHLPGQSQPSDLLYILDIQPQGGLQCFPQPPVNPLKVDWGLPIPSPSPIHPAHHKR
T1 sequence (P08514 891-1039 limits assumed): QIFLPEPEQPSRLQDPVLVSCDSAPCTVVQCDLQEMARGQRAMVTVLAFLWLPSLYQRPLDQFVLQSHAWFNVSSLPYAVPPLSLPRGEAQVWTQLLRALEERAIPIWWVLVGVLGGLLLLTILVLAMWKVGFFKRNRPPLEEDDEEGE
T1 sequence (P05106 27-788): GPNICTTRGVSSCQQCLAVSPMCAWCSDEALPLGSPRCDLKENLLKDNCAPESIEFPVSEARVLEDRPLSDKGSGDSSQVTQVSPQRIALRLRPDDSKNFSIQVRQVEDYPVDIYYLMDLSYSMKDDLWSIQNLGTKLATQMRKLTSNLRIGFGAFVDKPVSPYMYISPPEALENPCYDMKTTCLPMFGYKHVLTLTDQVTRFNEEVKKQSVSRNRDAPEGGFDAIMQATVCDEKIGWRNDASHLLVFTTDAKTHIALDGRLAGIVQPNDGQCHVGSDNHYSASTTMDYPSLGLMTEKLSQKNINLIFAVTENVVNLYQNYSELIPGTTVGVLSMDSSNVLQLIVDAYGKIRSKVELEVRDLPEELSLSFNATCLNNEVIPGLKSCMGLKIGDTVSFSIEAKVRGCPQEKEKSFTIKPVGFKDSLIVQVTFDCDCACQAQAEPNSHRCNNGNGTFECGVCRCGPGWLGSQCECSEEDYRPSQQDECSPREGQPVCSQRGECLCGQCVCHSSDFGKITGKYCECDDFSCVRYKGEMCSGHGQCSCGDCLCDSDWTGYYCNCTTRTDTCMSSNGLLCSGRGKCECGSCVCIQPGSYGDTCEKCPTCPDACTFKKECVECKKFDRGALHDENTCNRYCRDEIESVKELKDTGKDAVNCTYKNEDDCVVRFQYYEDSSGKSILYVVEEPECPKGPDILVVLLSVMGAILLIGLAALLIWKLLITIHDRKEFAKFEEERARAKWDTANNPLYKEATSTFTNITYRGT
Method: (i) Preparation of human platelet lysates.
Platelet rich plasma (PRP) is harvested by centrifugation (1000 rpm, 15 mins) of whole blood anticoaoulated with acid citrate dextrose (trisodium citrate 85 mM, citric acid 70 mM, d-glucose 110 mM) 1 part to 6 parts blood. Prostacyclin (PGI2, 1 μM) is added to the PRP before centrifugation (2400 pm, 15 mins) and the resulting pellet is resuspended in modified Tyrodes' solution (NaCl 130 mM, KCl 26 mM, NaHCO3 12 mM, NaH2 PO4 0.5 mM, MgCl2 1 mM, CaCl2 20 mM, Glucose 12 mM, HEPES 5 mM) containing bovine serum albumin 3.5 g/L, PGI2 1 μM and hirudin 0.5 U/ml. The platelet suspension is centrifuged (2400 rpm, 15 mins) and the resultant pellet resuspended in 500 μl of lysis buffer (octyl glucoside 50 mM, HEPES 10 mM, NaCl 150 mM, CaCl2 1 mM, MgCl2 1 mM, PMSF 1 mM, NEM 10 mM, leupeptin 0.1 mM), agitated at 4° C. for 15 minutes then centrifuged at 24000 rpm, 15 mins. The supernatant is stored at 4° C. and the pellet re-suspended in 500 μl of lysis buffer. The centrifugation process is repeated a further 3 tlimes, the pooled supernatants being stored at -70° C.
(ii) Receptor purification.
GP Ilb/Ila is isolated from human platelet lysates using a 2 ml peptide (KYGRGDS) coupled CNBr activated Sepharose affinity column. A 1.5 ml volume of platelet lysate is placed on the column and allowed to stand overnight at 4° C. Buffer (30 mls, octyl gluicoside 25 mM, HEPES 10 mM, NaCl 150 mM, CaCl2 1 mM, MgCl2 1 mM, PMSF 1 mM, NEM 10 mM, leupeptin 0.1 mM) is passed through the column and 2 ml fractions are collected throughout. GPIIb/IIIa is eluted with 12 mls of buffer containing HHLGGAKQAGDV (2 mg/ml, pH 7.5), the column is washed using 4 mls buffer and the remaining GPIIb/IIIa eluted using 12 mls buffer containing GRGDSPG (1 mg/ml pH 7.5). The column is finally washed using 20 mls of buffer and can be used for up to three such preparations. Fractions containing FGPIIb/IIIa are identified using gel electrophoresis and immunoblotting, pooled and stored at -70° C.
96 well microtitre plates are coated with 100 μl purified human platelet fibrinogen receptor (GPIIb/IIIa) diluted in coating buffer (Tris-HCl 20 mM, NaCl 150 mM, CaCl2 1 mM, pH 7.4) and left overnight at 4° C. The plates are washed using washing buffer (Tris-HCl 50 mM, NaCl 100 mM, CaCl2 2 mM, pH 7.4) and non-specific binding, blocked by the addition of 200 μl 2% BSA (2 hours, 30° C.). The plates are washed prior to incubation (2 hours, 30° C.) with 100 μl biotinylated fibrinogen ([…]) containing either vehicle or test compound. The plates are washed, incubated with streptavidin (5 μg/ml, 1 hour, ambient temperature), then washed again before the addition of 100 μl biotinylated horse radish peroxidase (0.1 μg/ml, 1 hour, ambient temperature). The plates are then washed and equal volumes of peroxidase substrate (3, 5, tetramethyl benzidine 0.4 g/l) and H2 O2 (0.02%) are mixed together immediately before addition of 150 μl to each well. Colour is allowed to develop for 10-15 mins before optical densities are read at 650 nm.
The concentration of compound required to cause 50% inhibition of biotinylated fibrinogen binding, is calculated and expressed as a pIC50 (-log(IC50)).

[2] = biological target: T2, human, citrated, platelet-rich plasma (Homo sapiens, UniProt P05106+P08514); assay: Test (a): inhibition of ADP stimulated platelet aggregation (Born); assay type: cell-based; conditions: ADP induced aggregation of human platelet-rich plasma; read-out: Test (a): pA2 value indicating potency of platelet aggregation inhibition (converted)
T2 construct: aggregating human, citrated, platelet-rich plasma; endogenous in cells; host or cells: human platelets in citrated platelet-rich plasma
T2 sequence (P08514 32-887 limits assumed): as the sequence (P08514 32-887 limits assumed) above
T2 sequence (P08514 891-1039 limits assumed): as the sequence (P08514 891-1039 limits assumed) above
T2 sequence (P05106 27-788): as the sequence (P05106 27-788) above
Description: (i) aggregating human, citrated, platelet-rich plasma by addition of adenosine diphosphate so as to generate a dose-response curve;
(ii) generating a dose-response curve for ADP stimulated platelet aggregation in the presence of increasing amounts of a test compound (generally in the range 10-^5 M to 10-^10 M); and
(iii) calculating a pA2 value indicating potency of platelet aggregation inhibition for the test compound, averaged over several concentrations, from the calculated 50% response value for ADP aggregation in the presence and absence of the test compound.

Row | SMILES | IC50 [1] | Kb [2] | Test (b): pIC50 (-log(IC50)), 50% inhibition of biotinylated fibrinogen binding to GPIIb/IIIa [1]
1 | CCCCS(=O)(=O)NC(Cc1ccc(CN2CCN(c3ccncc3)CC2)cc1)C(=O)O (racemic) [Example 68, 2-RS-(n-Butylsulphonylamino)-3-[4-(4-pyridyl)piperazin-1-ylmethylene]phenylpropionic acid] | 12.6 nM | 316 nM | –
2 | CCCCS(=O)(=O)NC(CC1CCN(C(=O)CN2CCN(c3ccncc3)CC2)CC1)C(=O)OCC (racemic) [Example 110, Ethyl 2RS-(n-butylsulphonylamino)-3-[1-[2-[4-(4-pyridyl)piperazin-1yl]-acetyl]piperidin-4-yl]propanoate] | > 100000 nM | 6310 nM | –
3 | CCCCS(=O)(=O)NC(CC1CCN(C(=O)CN2CCN(c3ccncc3)CC2)CC1)C(=O)O (racemic) [Example 111] | 6310 nM | 5010 nM | –
4 | COC(=O)COc1ccc(C(=O)C(C)CN2CCN(c3ccncc3)CC2)cc1 (racemic) [Example 177, RS Methyl 4-[3-[4-(4-pyridyl)piperazin-1-yl]-2-methylpropanoyl]-phenoxyacetate] | 79400 nM | 1580 nM | –
5 | C=CC(COc1ccc(N2CCN(c3ccncc3)CC2)cc1)CC(=O)O (racemic) [Example 204, RS-4-[4-[4-(4-Pyridyl)piperazin-1-yl]phenoxy]-3-vinylbutyric acid, sodium salt] | 1.26 nM | 79.4 nM | –
6 | COC(=O)C(CCOc1ccc(N2CCN(c3ccncc3)CC2)cc1)NC(=O)OC(C)(C)C (racemic) [Example 211, RS Methyl 2-t-butoxycarbonylamino-4-[4-[4-(4-pyridyl)piperazine-1-yl]phenoxy]butyrat] | 158 nM | 1580 nM | –
7 | COC(=O)C(N)CCOc1ccc(N2CCN(c3ccncc3)CC2)cc1 (racemic) [Example 213, RS Methyl 2-amino-4-[4-[4-(4-pyridyl)piperazin-1-yl]phenoxy]butyrate] | 501 nM | 200 nM | –
8 | O=C(O)CO[C@@H]1CCN(C(=O)CN2CCN(c3ccncc3)CC2)C[C@H]1OCC(=O)O (relative stereo) [Example 105] | 251 nM | 251 nM | –
9 | O=C(O)COc1ccc(C(=O)CN2CCN(c3ccncc3)CC2)cc1 [Example 2] | 25.1 nM | 50.1 to 79.4 nM | 7.6
10 | COC(=O)COc1ccc(C(=O)CN2CCN(c3ccncc3)CC2)cc1OCC(=O)OC [Example 3] | 251 nM | 501 nM | –
11 | O=C(O)COc1ccc(C(=O)CN2CCN(c3ccncc3)CC2)cc1OCC(=O)O [Example 4, 2,2'-[4-[2-[4-(4-Pyridyl)piperazin-1-yl]acetyl]phenylene-1,2-dioxy]diaceticacid] | 0.794 nM | 1.26 nM | –
12 | COC(=O)COc1ccc(C(=O)CN2CCN(c3ccncc3)CC2)cc1OC [Example 5, Methyl 4-[2-[4-(4-pyridyl)piperazin-1-yl]acetyl]-2-methoxyphenoxyacetate] | 1000 nM | 1000 nM | –
13 | COc1cc(C(=O)CN2CCN(c3ccncc3)CC2)ccc1OCC(=O)O [Example 6, 4-[2-[4-(4-Pyridyl)piperazin-1-yl]acetyl]-2-methoxyphenoxyacetic acid] | 25.1 nM | 63.1 nM | –
14 | COC(=O)COc1ccc(C(=O)CCN2CCN(c3ccncc3)CC2)cc1 [Example 7, Methyl 4-[3-[4-(4-pyridyl)piperazin-1-yl]propanoyl]phenoxyacetate] | 3980 to 6310 nM | 501 nM | –
15 | O=C(O)COc1ccc(C(=O)CCN2CCN(c3ccncc3)CC2)cc1 [Example 8, 4-[3-[4-(4-Pyridyl)piperazin-1-yl]propanoyl]phenoxyacetic acid] | 79.4 nM | 316 nM | –
16 | COC(=O)CSc1ccc(C(=O)CN2CCN(c3ccncc3)CC2)cc1 [Example 9, Methyl 4-[2-[4-(4-pyridyl)piperazin-1-yl]acetyl]phenylthioacetate] | 50100 nM | 12600 nM | –
17 | O=C(O)CSc1ccc(C(=O)CN2CCN(c3ccncc3)CC2)cc1 [Example 10] | 1000 nM | 2000 nM | –
18 | COC(=O)CCc1ccc(C(=O)CN2CCN(c3ccncc3)CC2)cc1 [Example 11, Methyl 3-[4-[2-[4-(4-pyridyl)piperazin-1-yl]acetyl]phenyl]propionate] | 39800 nM | 2000 nM | –
19 | O=C(O)CCc1ccc(C(=O)CN2CCN(c3ccncc3)CC2)cc1 [Example 12, 3-[4-[2-[4-(4-Pyridyl)piperazin-1-yl]acetyl]phenyl]propionic acid] | 63.1 nM | 501 nM | –
20 | COC(=O)Cc1ccc(C(=O)CN2CCN(c3ccncc3)CC2)cc1 [Example 13, Methyl 4-[2-[4-(4-pyridyl)piperazin-1-yl]acetyl]phenylacetate] | 15800 to 39800 nM | 5010 nM | –
21 | CCOC(=O)Cc1ccc(C(=O)CN2CCN(c3ccncc3)CC2)cc1 [Example 14, Ethyl 4-[2-[4-(4-pyridyl)piperazin-1-yl]acetyl]phenylacetate] | > 100000 nM | 7940 nM | –
22 | O=C(O)Cc1ccc(C(=O)CN2CCN(c3ccncc3)CC2)cc1 [Example 15, 4-[2-[4-(4-Pyridyl)piperazin-1-yl]acetyl]phenylacetic acid, trifluoroacetate salt] | 1260 nM | 2510 nM | –
23 | Cc1ccc(S(=O)(=O)Nc2ccc(C(=O)CN3CCN(c4ccncc4)CC3)cc2)cc1 [Example 19, N-[4-[2-[4-(4-Pyridyl)piperazin-1-yl]acetyl]phenyl-4-methylphenyl]-sulphonamide] | 2000 nM | 2510 nM | –
24 | CCCCS(=O)(=O)Nc1ccc(C(=O)CN2CCN(c3ccncc3)CC2)cc1 [Example 20, N-4-[2-[4-(4-Pyridyl)piperazin-1-yl]acetyl]phenyl-1-butanesulphonamide] | 15800 nM | 5010 nM | –
25 | Cc1ccc(S(=O)(=O)NCc2ccc(C(=O)CN3CCN(c4ccncc4)CC3)cc2)cc1 [Example 21, N-[4-[2-[4-(4-Pyridyl)piperazin-1-yl]acetyl]phenyl]methyl-4-methylphenylsulphonamide] | 158 to 501 nM | 63.1 to 158 nM | –
26 | CCCCS(=O)(=O)NCc1ccc(C(=O)CN2CCN(c3ccncc3)CC2)cc1 [Example 22, N-[4-[2-[4-(4-Pyridyl)piperazin-1-yl]acetyl]phenyl]methyl-1-butanesulphonamide] | 3980 nM | 126 to 200 nM | –
27 | Cc1ccc(S(=O)(=O)NCCc2ccc(C(=O)CN3CCN(c4ccncc4)CC3)cc2)cc1 [Example 23, N-[2-[4-[2-[4-(4-Pyridyl)piperazin-1-yl]acetyl]phenyl]ethyl]-4-methylphenylsulphonamide] | 6310 to 31600 nM | 1000 nM | –
28 | CCCCS(=O)(=O)NCCc1ccc(C(=O)CN2CCN(c3ccncc3)CC2)cc1 [Example 24, N-[2-[4-[2-[4-(4-Pyridyl)piperazin-1-yl]acetyl]phenyl]ethyl]-1-butanesulphonamide] | 31600 nM | 2000 nM | –
